These results are taken from ChEMBL document CHEMBL1201862, “PubChem BioAssay data set” (2004).

The structures appear in SMILES notation. Active and inactive are the calls of the source. Bounds are passed on as bounds.

Data set [1] can be described thus: cytotoxicity toward NIH3T3 fibroblasts, dose response, counter-screen, cell-based, ATP luminescence, mouse fibroblasts (AID 2010).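 Also: cells exposed to compound for about 90 hours before reading.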 Format: functional. On the technique in general: Counterscreens check selectivity or assay interference.
The nature of data set [2]: inhibitors of intracellular T. cruzi replication, confirmation, NIH3T3 host cells, beta-gal luminescence (AID 2044).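 Also: intracellular parasites grown in NIH/3T3 mouse fibroblasts as host cells; luminescent beta-galactosidase reporter signal from transgenic T. cruzi replicating inside host cells; inhibitors lower the luminescence signal.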 Format: functional, cell-based.
Data set [3] concerns Streptococcus sp. 'group A'. Kind of data set: growth inhibition of control SK(-) GAS strain, dose response, counter-screen for streptokinase expression inhibitor project, luminescence, kanamycin, BacTiterGlo, confirmation (AID 1900). It is filed as functional, organism-based.
Another data set has as its system Streptococcus. Kind of data set: Group A Streptococcus viability loss, dose response, counter-screen for streptokinase expression inhibitor project, luminescence, BacTiterGlo (AID 1915).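 Also: potency for reduction of bacterial viability or growth.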 Format: functional, organism-based.
The next data set concerns the target Cytochrome P450 2C19 (Homo sapiens, UniProt P33261). The data set can be described thus: Cytochrome panel assay with activity outcomes. Panel member name: p450-cyp2c19 Compounds with AC50 equal or less than 10 uM are considered active. Format: functional.

Sequence of Cytochrome P450 2C19 (P33261 whole entry): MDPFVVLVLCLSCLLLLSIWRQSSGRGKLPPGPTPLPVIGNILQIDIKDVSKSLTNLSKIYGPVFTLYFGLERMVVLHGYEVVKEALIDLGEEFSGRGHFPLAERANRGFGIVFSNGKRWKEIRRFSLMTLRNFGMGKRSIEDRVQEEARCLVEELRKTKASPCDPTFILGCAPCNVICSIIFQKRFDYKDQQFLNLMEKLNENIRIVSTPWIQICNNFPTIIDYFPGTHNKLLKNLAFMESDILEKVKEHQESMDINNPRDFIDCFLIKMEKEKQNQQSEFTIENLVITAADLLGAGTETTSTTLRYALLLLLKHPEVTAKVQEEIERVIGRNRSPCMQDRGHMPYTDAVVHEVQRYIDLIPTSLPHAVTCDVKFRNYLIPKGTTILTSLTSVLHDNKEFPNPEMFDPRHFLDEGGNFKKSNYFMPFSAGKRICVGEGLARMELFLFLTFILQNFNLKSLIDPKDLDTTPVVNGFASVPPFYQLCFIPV

As to `CN1CCN(CC(O)COC(c2ccccc2)c2ccccc2)CC1` (stereo not given), the EC50 was > 30 µM (not active) in data set [1] and 1.3 µM (active) in data set [2].

Consider `COC(=O)c1ccc(-c2nc(CN3CCN(Cc4cccc(C)c4)CC3)c(C)o2)cc1`, for which the values for the EC50 in data set [1] and in data set [2] were > 60 µM (not active) and 0.164 µM (active), respectively. The like results for `Cc1ccc(S(=O)(=O)Cn2nnnc2C(C(C)C)N2CCN(c3nc4ccccc4s3)CC2)cc1` (stereo not given) were, in that order, > 60 µM (inconclusive) and 0.532 µM (active). The like results for `Cc1c(C(=O)Nc2ccc(-c3nnc4n3CCCCC4)cc2)oc2ccc(Br)cc12` were, in that order, > 60 µM (not active) and 1.18 µM (active).

For `C[C@@H](C(=O)NCCc1ccccc1)N1C(=O)N2CCc3c([nH]c4ccccc34)[C@@]2(C)C1=O`, the 50% effective concentration (EC50) in data set [1] is > 60 µM (not active); in data set [2], 2 µM (active). Take `CC(Oc1ccccc1)C(=O)NC1C(=O)N2C1SC(C)(C)C2C(=O)O` (stereo not given): the EC50 is 0.11 µM (active) in data set [3] and 0.124 µM (active) in the data set on Streptococcus.

For `COc1ccc(CNc2ccc(Cl)cc2)cc1Cn1ccnc1`, the EC50 in data set [1] is > 60 µM (not active); in data set [2] it was 0.114 µM (active). The like results for `CCOC(=O)c1c(NC(=O)CSc2nnnn2-c2ccccc2)sc2c1CC(C)(C)NC2(C)C` were, in that order, 8.34 µM (active) and 0.831 µM (active).

As to `CN(CCc1ccccn1)C1CCCN(S(=O)(=O)c2ccc(F)c(Cl)c2)C1` (stereo not given), the EC50 is > 60 µM (not active) in data set [1] and 1.2 µM (active) in data set [2].

For `C/C(=N\NC(=O)Cc1ccc(Cl)cc1)c1ccccc1O`, the figures for the EC50 in data set [1] and in data set [2] were 10.8 µM (active) and 2.79 µM (active), respectively. The like results for `COCC1CCN(Cc2c[nH]nc2-c2cc3ccccc3o2)C1` (stereo not given) were, in that order, > 60 µM (not active) and 0.76 µM (active). The like results for `COc1ccc(NS(=O)(=O)c2cccc(NC(=O)c3cnccn3)c2)cc1Br` were, in that order, > 60 µM (not active) and 1.79 µM (active). The like results for `Cc1nn(Cc2ccc(Cl)cc2Cl)c(Cl)c1/C=N/NC(=O)CNc1cccc(C(F)(F)F)c1` were, in that order, > 60 µM (inconclusive) and 2.62 µM (active). In the case of `CCn1c(S)nnc1CCNC(=O)c1ccc(Cl)cc1Cl`, the AC50 at Cytochrome P450 2C19 (read-out: AC50) is 10 µM (inconclusive). For the compound `CC(C)C(=O)NC(=S)Nc1ccccc1N1CCN(C(=O)c2ccc(Cl)cc2)CC1`, the EC50 is > 60 µM (not active) in data set [1] and 1.47 µM (active) in data set [2]. The like results for `CC1CCN(CC(O)COCCC23CC4CC(CC(C4)C2)C3)CC1` (stereo not given) were, in that order, > 60 µM (not active) and 0.164 µM (active). Take `Cc1onc(-c2ccccc2)c1C(=O)NNC(=S)NC(=O)/C=C/c1cccs1`: the 50% effective concentration (EC50) in data set [3] was 1.02 µM (active); with Streptococcus, 2.02 µM (active). Take `Cc1nn2c(O)cc(C(C)(C)C)nc2c1-c1ccccc1`: the half-maximal effective concentration (EC50) is 2.71 µM (active) in data set [3], 4.17 µM (active) in data set [1], 6.75 µM (active) in the data set on Streptococcus and 1.85 µM (active) in data set [2]. For `CC(C)Cc1nnc(NC(=O)c2ccc([N+](=O)[O-])cc2)s1`, the AC50 result at Cytochrome P450 2C19 is given as “inconclusive”. On the same count and under the same terms, with `Cc1cc(=O)oc2cc(O)c(CN(C)CC(=O)O)cc12` the entry was “inconclusive”. With `Cc1sc(NC(=O)c2ccco2)c(CN2CCN(Cc3ccccc3)CC2)c1C`, the EC50 was > 30 µM (not active) in data set [1] and 3.39 µM (active) in data set [2]. Consider `O=C(NC1CCN(Cc2ccccc2)CC1)c1ccccc1`, for which the EC50 in data set [1] is 10.8 µM (active); in data set [2] it was 0.721 µM (active). For `C/C(CC(=O)Nc1ccccn1)=N\NC(=O)C(=O)Nc1cccc(Cl)c1C`, on Cytochrome P450 2C19 (read-out: AC50), the AC50 is 11.2 µM (inconclusive). `COC(=O)[C@@]1(Cc2ccc(F)cc2)[C@H]2c3cc(C(=O)N(C)C)n(CCSCCO)c3C[C@H]2CN1C(=O)c1ccccc1`: the AC50 on Cytochrome P450 2C19 (read-out: AC50) was 39.8 µM (inconclusive).

What is called EC50 is the concentration at which the effect is half-maximal. As a reminder, the AC50 is the concentration at which the activity in the assay is half-maximal.
